{"source": "patent US9487561B2", "about": "“Biologically active complex and its preparation” (HAMLET PHARMA AB, priority 2010, dated 2016)", "molecules": {"B1": {"name": "α-lactalbumin: native α-lactalbumin purified from human milk (protein, UniProt P00709 20-142, looked up)", "Alpha-lactalbumin": "KQFTKCELSQLLKDIDGYGGIALPELICTMFHTSGYDTQAIVENNESTEYGLFQISNKLWCKSSQVPQSRNICDISCDKFLDDDITDDIMCAKKILDIKGIDYWLAHKALCTEKLEQWLCEKL"}, "B2": {"name": "Oleate-HAMLET: complex from EDTA treated alphalactalbumin converted on a column conditioned with sodium oleate (protein, UniProt P00709 20-142, looked up)", "Alpha-lactalbumin": "B1 Alpha-lactalbumin", "modifications": "sodium oleate complex"}, "B3": {"name": "α-lactalbumin^all-ala mutant: partially unfolded α-lactalbumin with all cysteines mutated to alanine (SEQ ID NO: 1 / 2) (protein)", "chain 1": "B1 Alpha-lactalbumin with C6A, C28A, C61A, C73A, C77A, C91A, C111A, C120A", "chain 2": "MKQFTKAELSQLLKDIDGYGGIALPELIATMFHTSGYDTQAIVENNESTEYGLFQISNKLWAKSSQVPQSRNIADISADKFLDDDITDDIMAAKKILDIKGIDYWLAHKALATEKLEQWLAEKL"}}, "key": {"[1]": {"test_system": "tumor cells", "assay": "ion fluxes (Ca^2+, K^+, Na^+) quantified by fluorometry", "format": "cell-based", "conditions": "for fluxes of Ca^2+, K^+ and Na^+: FIG. 1B", "method": "FIG. 1. […] (A, upper panels) Bright-field micrographs showing glass-adherent egg yolk vesicles before and after a 40-minute exposure to HAMLET, α-lactalbumin (HLA) or oleic acid (OA). Morphology was recorded by differential interference contrast microscopy. Scale bar […]. […] (A, lower panels) Effect of HAMLET on PMVs from lung carcinoma cells. PMVs on glass-bottom dishes were exposed to HAMLET, HLA or OA and stained with Nile red for confocal microscopy. […] As a control PMVs from healthy, differentiated cells on glass-bottom dishes were also exposed to HAMLET and stained with Nile red.\nFIG. 7. Ion Fluxes. (A) Ion fluxes induced by HAMLET (35 μM) or it constituents (35 μM All-ala α-lactalbumin or 175 μM sodium oleate) were quantified by fluorometry, as described. […] (B) The global transcriptional response to HAMLET was studied by microarray and the top 3000 genes by variance visualized in a Heatmap. […] Darker bands=high expression, lighter bands=low.\n(§1) The FLUXOR™ potassium (K^+) channel assay was performed on the TECAN infinite F200 (Tecan Group, Switzerland), according to the manufacturer's instructions (Invitrogen). Briefly, this involved FLUXOR™ loading buffer (Hank's Balanced Saline Solution, (HBSS) buffered with 20 mM HEPES and pH adjusted to 7.4 with NaOH. POWERLOAD™ concentrate and water-soluble Probenecid were used respectively to enhance the dye solubility and retention, respectively. Media were removed from the cell plates manually, and 80 μL of loading buffer containing the FLUXOR™ dye mix was applied to each well. Once inside the cell, the nonfluorescent AM ester form of the FLUXOR™ dye is cleaved by endogenous esterases into a thallium-sensitive indicator. The dye was loaded for 60 minutes at room temperature and then removed with the supernatant. After washing with dye-free PBS buffer, a final volume of 80 μL assay buffer containing water-soluble probenecid was added. Cells received one of the following channel inhibitors: 3.3 μL per well of 30 mM amiloride, 3.0 μL of 32 mM BaCl2, 1.8 μL of 5.4 mM gadolinium, 3 μL 3.2 mM tetrandrine and 2.3 μL of 2.6 mM ruthenium red, and were then incubated at room temperature (23-25° C.) for 30 minutes to allow equilibration of the test compounds. Prior to injection, stimulation buffer was prepared from the chloride-free buffer and thallium reagents provided in the kit as well as HAMLET, to achieve a final added concentrations of 2 mM free Tl+ and 35 μM HAMLET after 1:5 dilution upon injection of the stimulus buffer onto cells that had been loaded with FLUXOR™ dye."}, "[2]": {"test_system": "A549 lung carcinoma cells", "assay": "global transcriptional response, whole genome arrays (Affymetrix)", "format": "cell-based, human", "conditions": "Example 5, Affymetrix U219, adjusted p-value <0.05 and log 2-foldchange of 1", "method": "For the microarray analysis with ion channel inhibitors, 200,000 A549 cells/well were allowed to adhere overnight on a 6-well plate. After 1 hour of HAMLET treatment, the cells were lysed and RNA was extracted using the RNeasy Mini Kit (QIAGEN). The samples were sent to AROS Applied Biotechnology (Århus, Denmark) for analysis. Data was preprocessed using RMA implemented in the free software packages “affy” as provided by R and Bioconductor (<www.r-project.org>). Differentially expressed genes were identified using empirically Bayes adjusted t-statistics and characterized using the Functional Annotation Clustering Tool in the Database for Annotation, Visualization and Integrated Discovery (DAVID), (Dennis et al., 2003 Genome Biology 4(5): P3) and Ingenuity Pathway Analysis (Ingenuity Systems). All microarray data were registered into NCBI's Gene Expression Omnibus (GEO) database (<www.ncbi.nlm.nih.gov/projects/geo>) with accession numbers GSE23772.\nTo understand the mechanisms of carcinoma cell death and the contribution of ion channel activation, the global transcriptional response to HAMLET was examined, using whole genome arrays. A549 lung carcinoma cells were exposed to HAMLET (21 μM) for one hour and cells pretreated with amiloride were compared to cells in medium alone. […] An unbiased global overview of transcription was obtained by performing a hierarchical clustering of the top 3000 genes by variance and was visualized in a heatmap (FIG. 2D and FIG. 13). Genes with empirical Bayes adjusted p-values <0.05 and log 2 fold changes >1 were considered differentially expressed and were functionally characterized using Database for Annotation, Visualization and Integrated Discovery, (Dennis et al., supra, 2003) and Ingenuity Pathway Analysis.\nIn total 12 RNA samples were generated (triplicate of control, oleic Acid, HAMLET, and oleate-treated) and hybridized to Affymetrix Whole Genome microarrays U219. […] For statistical analysis normalized data were linear model fitted and Empirical Bayesian analysis, coupled with p-value adjustment, performed."}, "[3]": {"test_system": "A549 lung carcinoma cells", "assay": "cell death assay (trypan blue exclusion, ATP levels)", "format": "cell-based, human", "conditions": "30 minutes pretreatment, HAMLET three hours", "method": "(§2) Cells were detached from cell culture flasks with versen (0.2 g EDTA in 200 ml H2O and 800 ml PBS), washed with PBS and resuspended in serum-free RPMI-1640. HAMLET dissolved in PBS was incubated with cells (0.5×10^6/ml for A549, A498 and HeLa cells; 1×10^6/ml for Jurkat) at 37° C. FCS was added after 1 hour. Cell death was quantified by trypan blue exclusion (Chroma Gesellschaft Schmid & Co) or by measuring ATP levels (ATPlite Kit, PerkinElmer, Infinite 200, Tecan). Light images were captured using the HOLOMONITOR™ M2 digital holographic microscope (Phase Holographic Imaging AB, Lund, Sweden).\nFor studies with inhibitors, cells were pretreated for 30 minutes. Inhibitors used were Gadolinium chloride (GdCl3, 100 μM), Barium chloride (BaCl2, 1 mM), Ruthenium red (30 μM), tetrandrine (10 μM) and amiloride (1 mM), all from Sigma Aldrich. For p38 inhibition, SB202190 (20 μM, Sigma Aldrich) or BIRB796 (10 μM, Axon Medchem) dissolved in DMSO was used. The wells were washed twice with PBS and new medium with inhibitor was added. For RNA interference, FlexiTube siRNA Premixes against MAPK11 (SI00606053), MAPK14 (SI00300769) and All Star Negative Control siRNA (SI03650318) from Qiagen was used. A549 forward was transfected using 25 nM final siRNA concentration in 24-well plate. After 48 hours, knockdown was examined by Western blot (anti-p38, 1:1000, Cell Signaling) and RT-PCR (MAPK14, QT00079345, QIAGEN).\nTo examine if functional ion channels are important for the tumoricidal activity of HAMLET, A549 lung carcinoma cells in suspension were pretreated with the channel inhibitors for 30 minutes and exposed to increasing concentrations of HAMLET for three hours.\nA549 cells were seeded to a density of 0.8-1.0×10^6 cells/well in RPMI without FCS. Different volumes of HAMLET/oleate and oleic acid solutions were added. The cells were incubated for 1 hour at 37° C. 5% CO2 for 1 hour before 50 μl of FCS (5% final concentration) were added to the wells. The cells were then further incubated for additional 2 hours before the viability were determined by trypan blue exclusion and ATP measurements."}, "[4]": {"test_system": "lung carcinoma, kidney carcinoma and lymphoma cells", "assay": "HAMLET-induced change in cell morphology (light microscopy, real-time imaging)", "format": "cell-based", "conditions": "light microscopy", "method": "as §2\nFor live cell imaging, cells were pre-treated with SB202190 for 30 minutes, nuclei were stained with Hoechst 33342 (Invitrogen) and Alexa-Fluor 568-labeled HAMLET (10% labeled HAMLET, Molecular Probes) was added in serum-free medium. FCS was added after 1 hour. Fluorescence was detected with pinhole settings corresponding to 1 airy unit. The cells were kept at 37° C., 5% CO2 and examined unfixed by LSM510 DUO confocal microscopy (Carl Zeiss).\nTo examine if the HAMLET-induced change in carcinoma cell morphology was modified by the channel inhibitors, lung carcinoma, kidney carcinoma and lymphoma cells were exposed to HAMLET in the presence or absence of ion channel inhibitors and examined by light microscopy (FIG. 2C).\nTo determine if p38 signaling was involved in cell death, we inhibited p38α and p38β in lung and kidney carcinoma and Jurkat lymphoma cells with two small-molecule p38 inhibitors: SB202190, a highly specific pyridinyl-imidazole inhibitor; and BIRB796, a diaryl urea compound, which bears little structural similarity to SB202190 (Fabian et al., 2005, Nature Biotechnology 23: 329-336), ([…] and FIG. 12B). […] The effect of p38 inhibition on cell death was also observed by real-time confocal imaging of lung carcinoma cells exposed to fluorescently labeled HAMLET."}, "[5]": {"test_system": "potassium channels in A549, lung carcinoma cell lines", "assay": "FLUXOR potassium (K^+) channel assay, Thallium (Tl^+) indicator", "format": "cell-based, human", "conditions": "HAMLET 35 μM; oleate 175 μM (5× the HAMLET concentration); peptides mixed with oleate and immediately added", "method": "as §1\nTo distinguish Ca^2+ mobilization from intracellular stores from the influx of extracellular Ca^2+, EGTA was then added to the cell medium. […] K^+ fluxes across tumor cell membranes were subsequently quantified under the same experimental conditions, using the fluorophore FLUXOR™, which fluoresces after thallium has entered cells through K^+ channels.\nPotassium channel activity was therefore measured in A549, lung carcinoma cell lines using an indicator, which emits fluorescence signal upon entering the cells via opened potassium channels, Thallium (Tl^+) indicator (FIG. 18)."}, "[6]": {"test_system": "tumor cells", "assay": "Tumoricidal Activity of Oleate-HAMLET (cell death method of Example 1)", "format": "cell-based"}, "[7]": {"conditions": "35 μM All-ala α-lactalbumin or 175 μM sodium oleate, FIG. 7A"}}, "note": "Residue numbers refer to the chain shown, from its start.", "data": [{"molecule": "CCCCCCCC/C=C\\CCCCCCCC(=O)O", "note": "[oleic acid, reference compound]", "values": [{"measurement": "fluxes of Ca^2+, K^+ and Na^+", "setting": "[1]", "result": "no effect"}, {"measurement": "ion channel activating activity", "setting": "[1]; at concentrations relevant for the HAMLET complex", "result": "did not show ion channel activating activity"}, {"measurement": "number of differentially expressed genes", "setting": "[2]", "result": "two"}]}, {"molecule": "N.N.N.N.N.N.N.N.N.N.N.N.N.N.[Cl-].[Cl-].[Cl-].[Cl-].[Cl-].[Cl-].[O-2].[O-2].[Ru+3].[Ru+3].[Ru+4]", "note": "[Ruthenium red, ammoniated ruthenium oxychloride]", "values": [{"measurement": "effect of channel inhibitor on HAMLET-induced cell death", "setting": "[3]", "result": "no effect on viability"}, {"measurement": "effect of ion channel inhibitor on HAMLET-induced change in cell morphology", "setting": "[4]", "result": "did not prevent the morphological changes"}]}, {"molecule": "Beta: α-lactalbumin peptide, residue 41-80 (IVQNNDSTEYGLFQINNKIWCKDDQNPHSSNICNISCDKF; UniProt P00711 60-99, looked up, fragment)", "values": [{"measurement": "potassium channel activity (fluorescence signal)", "setting": "[5]", "result": "did not open potassium channels"}]}, {"molecule": "Alpha 1: α-lactalbumin peptide, residue 1-40 (EQLTKCEVFRELKDLKGYGGVSLPEWVCTTFHTSGYDTQA; UniProt P00711 20-59, looked up, fragment)", "values": [{"measurement": "potassium channel activity (fluorescence signal)", "setting": "[5]", "result": "did not open potassium channels"}]}, {"molecule": "Alpha 2: α-lactalbumin peptide, residue 81-123 (LDDDLTDDIMCVKKILDKVGINYWLAHKALCSEKLDQWLCEKL; UniProt P00711 100-142, looked up, fragment)", "values": [{"measurement": "potassium channel activity (fluorescence signal)", "setting": "[5]", "result": "did not open potassium channels"}]}, {"molecule": "B1", "values": [{"measurement": "fluxes of Ca^2+, K^+ and Na^+", "setting": "[1]", "result": "no effect"}]}, {"molecule": "B2", "values": [{"measurement": "tumoricidal activity compared with OA complex", "setting": "[6]", "result": "at least as tumoricidal as the OA complex"}, {"measurement": "Trypan blue", "setting": "[6]; 0.5 mg/ml, Control 88", "result": 1}, {"measurement": "ATP Activity", "setting": "[6]; 0.5 mg/ml, Control 100", "result": 27, "unit": "%"}]}, {"molecule": "B3", "values": [{"measurement": "K^+ fluxes", "setting": "[1]; [7]", "result": "comparable to HAMLET"}, {"measurement": "Na^+ or Ca^2+ fluxes", "setting": "[1]; [7]", "result": "weaker"}]}]}
